Measurements taken from patent publication US4479951A, “1.4;3.6-Dianhydrohexitol nitrates substituted by purine bases, processes for their preparation and pharmaceutical compositions” (Dr. Willmar Schwabe GmbH & Co., priority 1980, dated 1984).

System: mongrel dogs
Assay: circulatory-pharmacological effectiveness on the narcotised dog, intravenous administration
Format: in vivo

Nc1ncnc2c1ncn2[C@H]1CO[C@H]2[C@@H]1OC[C@@H]2O[N+](=O)[O-] [1c/2c, 5-(9-Adenyl)-5-desoxy-1.4;3.6-dianhydro-L-iditol 2-nitrate] was tested, and the “APdiast: diastolic aorta pressure” value (40 min after i.v. 1 mg/kg) was 81.0 mm.Hg, the “APsyst: systolic aorta pressure” value (40 min after i.v. 1 mg/kg) was 126.6 mm.Hg and the “BFFem: blood flow in the A. femoralis, referred to 20 kg. body weight” value (“BFFem: blood flow in the A. femoralis” for short) (40 min after i.v. 1 mg/kg) was 46.3 mL/min. For the same compound, the “HF: heart frequency” value (40 min after i.v. 1 mg/kg) was 120.7 min⁻¹, the “HLL: heart capacity left, referred to 20 kg. body weight” value (“HLL: heart capacity left, referred” for short) (40 min after i.v. 1 mg/kg) was 0.76 W and the “HLR: heart capacity right, referred to 20 kg. body weight” value (“HLR: heart capacity right, referred” below) (40 min after i.v. 1 mg/kg) was 89.3 mW. For the same compound, the HZV: heart minute volume, referred to 20 kg. body weight (40 min after i.v. 1 mg/kg) was 3.72 L/min, the “LVEDP: end diastolic pressure in the left ventricle” value (“LVEDP: end diastolic pressure” below) (40 min after i.v. 1 mg/kg) was 4.41 mm.Hg and the “PAP: average pressure in the A. pulmonalis” value (from here on “PAP: average pressure”) (40 min after i.v. 1 mg/kg) was 14.1 ±1.8 mm.Hg. The “PRA: pressure in the right atrium” value (40 min after i.v. 1 mg/kg) was 3.37 mm.Hg, the “SV: beat volume, referred to 20 kg. body weight” value (from here on “SV: beat volume, referred”) (40 min after i.v. 1 mg/kg) was 32.7 mL and the “WAP: pulmonalis resistance, referred to 20 kg. body weight” value (shortened to “WAP: pulmonalis resistance, referred”) (40 min after i.v. 1 mg/kg) was 0.35 U. The “WFem: femoralis resistance, referred to 20 kg. body weight” value (shortened to “WFem: femoralis resistance, referred”) (40 min after i.v. 1 mg/kg) was 0.27 KU, the “WTP: total peripheral resistance, referred to 20 kg. body weight” value (shortened to “WTP: total peripheral resistance”) (40 min after i.v. 1 mg/kg) was 3.34 U and the “dp/dt: rate of pressure increase in the left ventricle” value (“dp/dt: rate of pressure increase” for short) (40 min after i.v. 1 mg/kg) was 2137.5 mm.Hg/sec. For the same compound, the “APdiast: diastolic aorta pressure” value (50 min after i.v. 1 mg/kg) was 83.4 mm.Hg, the “APsyst: systolic aorta pressure” value (50 min after i.v. 1 mg/kg) was 131.2 mm.Hg and the “BFFem: blood flow in the A. femoralis” value (50 min after i.v. 1 mg/kg) was 50.6 mL/min. The “HF: heart frequency” value (50 min after i.v. 1 mg/kg) was 118.7 min⁻¹, the “HLL: heart capacity left, referred” value (50 min after i.v. 1 mg/kg) was 0.75 W and the “HLR: heart capacity right, referred” value (50 min after i.v. 1 mg/kg) was 83.6 mW. The HZV: heart minute volume, referred to 20 kg. body weight (50 min after i.v. 1 mg/kg) was 3.55 L/min, the “LVEDP: end diastolic pressure” value (50 min after i.v. 1 mg/kg) was 4.69 mm.Hg and the “PAP: average pressure” value (50 min after i.v. 1 mg/kg) was 13.9 ±1.9 mm.Hg. The “PRA: pressure in the right atrium” value (50 min after i.v. 1 mg/kg) was 3.43 mm.Hg, the “SV: beat volume, referred” value (50 min after i.v. 1 mg/kg) was 32.0 mL and the “WAP: pulmonalis resistance, referred” value (50 min after i.v. 1 mg/kg) was 0.34 U. The “WFem: femoralis resistance, referred” value (50 min after i.v. 1 mg/kg) was 0.26 KU, the “WTP: total peripheral resistance” value (50 min after i.v. 1 mg/kg) was 3.61 U and the “dp/dt: rate of pressure increase” value (50 min after i.v. 1 mg/kg) was 2118.5 mm.Hg/sec. The “APdiast: diastolic aorta pressure” value (60 min after i.v. 1 mg/kg) was 87.6 mm.Hg, the “APsyst: systolic aorta pressure” value (60 min after i.v. 1 mg/kg) was 133.1 mm.Hg and the “BFFem: blood flow in the A. femoralis” value (60 min after i.v. 1 mg/kg) was 50.4 mL/min. The “HF: heart frequency” value (60 min after i.v. 1 mg/kg) was 114.2 min⁻¹, the “HLL: heart capacity left, referred” value (60 min after i.v. 1 mg/kg) was 0.79 W and the “HLR: heart capacity right, referred” value (60 min after i.v. 1 mg/kg) was 89.5 mW. For the same compound, the HZV: heart minute volume, referred to 20 kg. body weight (60 min after i.v. 1 mg/kg) was 3.73 L/min, the “LVEDP: end diastolic pressure” value (60 min after i.v. 1 mg/kg) was 4.78 mm.Hg and the “PAP: average pressure” value (60 min after i.v. 1 mg/kg) was 14.1 ±2.0 mm.Hg. For the same compound, the “PRA: pressure in the right atrium” value (60 min after i.v. 1 mg/kg) was 3.37 mm.Hg, the “SV: beat volume, referred” value (60 min after i.v. 1 mg/kg) was 35.6 mL and the “WAP: pulmonalis resistance, referred” value (60 min after i.v. 1 mg/kg) was 0.33 U. The “WFem: femoralis resistance, referred” value (60 min after i.v. 1 mg/kg) was 0.26 KU, the “WTP: total peripheral resistance” value (60 min after i.v. 1 mg/kg) was 3.46 U and the “dp/dt: rate of pressure increase” value (60 min after i.v. 1 mg/kg) was 2118.5 mm.Hg/sec. The “APdiast: diastolic aorta pressure” value (90 min after i.v. 1 mg/kg) was 87.6 mm.Hg, the “APsyst: systolic aorta pressure” value (90 min after i.v. 1 mg/kg) was 136.9 mm.Hg and the “BFFem: blood flow in the A. femoralis” value (90 min after i.v. 1 mg/kg) was 50.8 mL/min. The “HF: heart frequency” value (90 min after i.v. 1 mg/kg) was 107.5 min⁻¹, the “HLL: heart capacity left, referred” value (90 min after i.v. 1 mg/kg) was 0.82 W and the “HLR: heart capacity right, referred” value (90 min after i.v. 1 mg/kg) was 91.5 mW. The HZV: heart minute volume, referred to 20 kg. body weight (90 min after i.v. 1 mg/kg) was 3.77 L/min, the “LVEDP: end diastolic pressure” value (90 min after i.v. 1 mg/kg) was 5.25 mm.Hg and the “PAP: average pressure” value (90 min after i.v. 1 mg/kg) was 14.5 ±2.1 mm.Hg. The “PRA: pressure in the right atrium” value (90 min after i.v. 1 mg/kg) was 3.85 mm.Hg, the “SV: beat volume, referred” value (90 min after i.v. 1 mg/kg) was 37.1 mL and the “WAP: pulmonalis resistance, referred” value (90 min after i.v. 1 mg/kg) was 0.32 U. For the same compound, the “WFem: femoralis resistance, referred” value (90 min after i.v. 1 mg/kg) was 0.27 KU, the “WTP: total peripheral resistance” value (90 min after i.v. 1 mg/kg) was 3.59 U and the “dp/dt: rate of pressure increase” value (90 min after i.v. 1 mg/kg) was 2081.2 mm.Hg/sec. For the same compound, the “APdiast: diastolic aorta pressure” value (120 min after i.v. 1 mg/kg) was 93.7 mm.Hg, the “APsyst: systolic aorta pressure” value (120 min after i.v. 1 mg/kg) was 143.4 mm.Hg and the “BFFem: blood flow in the A. femoralis” value (120 min after i.v. 1 mg/kg) was 58.6 mL/min. The “HF: heart frequency” value (120 min after i.v. 1 mg/kg) was 98.7 min⁻¹, the “HLL: heart capacity left, referred” value (120 min after i.v. 1 mg/kg) was 0.89 W and the “HLR: heart capacity right, referred” value (120 min after i.v. 1 mg/kg) was 98.7 mW. The HZV: heart minute volume, referred to 20 kg. body weight (120 min after i.v. 1 mg/kg) was 3.85 L/min, the “LVEDP: end diastolic pressure” value (120 min after i.v. 1 mg/kg) was 6.37 mm.Hg and the “PAP: average pressure” value (120 min after i.v. 1 mg/kg) was 15.1 ±2.3 mm.Hg. The “PRA: pressure in the right atrium” value (120 min after i.v. 1 mg/kg) was 3.94 mm.Hg, the “SV: beat volume, referred” value (120 min after i.v. 1 mg/kg) was 40.0 mL and the “WAP: pulmonalis resistance, referred” value (120 min after i.v. 1 mg/kg) was 0.30 U. The “WFem: femoralis resistance, referred” value (120 min after i.v. 1 mg/kg) was 0.25 KU, the “WTP: total peripheral resistance” value (120 min after i.v. 1 mg/kg) was 3.72 U and the “dp/dt: rate of pressure increase” value (120 min after i.v. 1 mg/kg) was 2043.7 mm.Hg/sec. For the same compound, the “APdiast: diastolic aorta pressure” value (150 min after i.v. 1 mg/kg) was 94.7 mm.Hg, the “APsyst: systolic aorta pressure” value (150 min after i.v. 1 mg/kg) was 147.2 mm.Hg and the “BFFem: blood flow in the A. femoralis” value (150 min after i.v. 1 mg/kg) was 58.2 mL/min. The “HF: heart frequency” value (150 min after i.v. 1 mg/kg) was 97.5 min⁻¹, the “HLL: heart capacity left, referred” value (150 min after i.v. 1 mg/kg) was 0.91 W and the “HLR: heart capacity right, referred” value (150 min after i.v. 1 mg/kg) was 98.0 mW. For the same compound, the HZV: heart minute volume, referred to 20 kg. body weight (150 min after i.v. 1 mg/kg) was 3.89 L/min, the “LVEDP: end diastolic pressure” value (150 min after i.v. 1 mg/kg) was 6.97 mm.Hg and the “PAP: average pressure” value (150 min after i.v. 1 mg/kg) was 15.1 ±1.5 mm.Hg. The “PRA: pressure in the right atrium” value (150 min after i.v. 1 mg/kg) was 4.03 mm.Hg, the “SV: beat volume, referred” value (150 min after i.v. 1 mg/kg) was 41.0 mL and the “WAP: pulmonalis resistance, referred” value (150 min after i.v. 1 mg/kg) was 0.27 U. For the same compound, the “WFem: femoralis resistance, referred” value (150 min after i.v. 1 mg/kg) was 0.26 KU, the “WTP: total peripheral resistance” value (150 min after i.v. 1 mg/kg) was 3.73 U and the “dp/dt: rate of pressure increase” value (150 min after i.v. 1 mg/kg) was 1950.0 mm.Hg/sec. For the same compound, the “APdiast: diastolic aorta pressure” value (180 min after i.v. 1 mg/kg) was 91.9 mm.Hg, the “APsyst: systolic aorta pressure” value (180 min after i.v. 1 mg/kg) was 143.4 mm.Hg and the “BFFem: blood flow in the A. femoralis” value (180 min after i.v. 1 mg/kg) was 59.4 mL/min. The “HF: heart frequency” value (180 min after i.v. 1 mg/kg) was 95.5 min⁻¹, the “HLL: heart capacity left, referred” value (180 min after i.v. 1 mg/kg) was 0.91 W and the “HLR: heart capacity right, referred” value (180 min after i.v. 1 mg/kg) was 98.5 mW. The HZV: heart minute volume, referred to 20 kg. body weight (180 min after i.v. 1 mg/kg) was 4.03 L/min, the “LVEDP: end diastolic pressure” value (180 min after i.v. 1 mg/kg) was 7.69 mm.Hg and the “PAP: average pressure” value (180 min after i.v. 1 mg/kg) was 14.9 ±1.3 mm.Hg. For the same compound, the “PRA: pressure in the right atrium” value (180 min after i.v. 1 mg/kg) was 4.12 mm.Hg, the “SV: beat volume, referred” value (180 min after i.v. 1 mg/kg) was 42.6 mL and the “WAP: pulmonalis resistance, referred” value (180 min after i.v. 1 mg/kg) was 0.24 U. The “WFem: femoralis resistance, referred” value (180 min after i.v. 1 mg/kg) was 0.24 KU, the “WTP: total peripheral resistance” value (180 min after i.v. 1 mg/kg) was 3.51 U and the “dp/dt: rate of pressure increase” value (180 min after i.v. 1 mg/kg) was 1593.7 mm.Hg/sec. For the same compound, the “APdiast: diastolic aorta pressure” value (before i.v. 1 mg/kg (v)) was 88.1 mm.Hg, the “APsyst: systolic aorta pressure” value (before i.v. 1 mg/kg (v)) was 150.9 mm.Hg and the “BFFem: blood flow in the A. femoralis” value (before i.v. 1 mg/kg (v)) was 53.4 mL/min. For the same compound, the “HF: heart frequency” value (before i.v. 1 mg/kg (v)) was 97.5 min⁻¹, the “HLL: heart capacity left, referred” value (before i.v. 1 mg/kg (v)) was 0.83 W and the “HLR: heart capacity right, referred” value (before i.v. 1 mg/kg (v)) was 96.0 mW. The HZV: heart minute volume, referred to 20 kg. body weight (before i.v. 1 mg/kg (v)) was 3.61 L/min, the “LVEDP: end diastolic pressure” value (before i.v. 1 mg/kg (v)) was 5.53 mm.Hg and the “PAP: average pressure” value (before i.v. 1 mg/kg (v)) was 15.8 ±1.4 mm.Hg. The “PRA: pressure in the right atrium” value (before i.v. 1 mg/kg (v)) was 3.94 mm.Hg, the “SV: beat volume, referred” value (before i.v. 1 mg/kg (v)) was 38.3 mL and the “WAP: pulmonalis resistance, referred” value (before i.v. 1 mg/kg (v)) was 0.38 U. For the same compound, the “WFem: femoralis resistance, referred” value (before i.v. 1 mg/kg (v)) was 0.28 KU, the “WTP: total peripheral resistance” value (before i.v. 1 mg/kg (v)) was 3.94 U and the “dp/dt: rate of pressure increase” value (before i.v. 1 mg/kg (v)) was 2081.2 mm.Hg/sec.
